Values quoted from earlier work, collected in article PMC2667333 (Molecular cell, 2009).

Test system: calcineurin (CN)
Settings: ref Swanson et al., 1992; Yin and Ochs, 2003

Compound | effect on CN-mediated pNPP dephosphorylation
cyclosporin A [CsA] | increase CN-mediated pNPP dephosphorylation
C=CC[C@@H]1/C=C(\C)C[C@H](C)C[C@H](OC)[C@H]2O[C@@](O)(C(=O)C(=O)N3CCCC[C@H]3C(=O)O[C@H](/C(C)=C/[C@@H]3CC[C@@H](O)[C@H](OC)C3)[C@H](C)[C@@H](O)CC1=O)[C@H](C)C[C@@H]2OC [FK506] | increase CN-mediated pNPP dephosphorylation
